# Source: patent US20250109127A1, “METHODS OF USE OF PHENOXYPROPYLAMINE COMPOUNDS TO TREAT DEPRESSION” (Minerva Neurosciences, Inc., priority 2013, published 2025)
# “And” between values parts separate entries of the source, which are not always exact repeats. Equal entries are not always repeated. Structures can show the parent of a compound that is named as a salt.
# Test system: HVA release in the rat prefrontal cortex
# Experiment: Microdialysis: HVA release in prefrontal cortex after I.P. administration
# Assay type: in vivo
# Conditions: for HVA release, MEAN / HVA release, individual animals: 0.3 mg/kg I.P.; for HVA release, MEAN / HVA release (% of basal levels) measured in dialysates, MEAN: n = 8; for HVA release, individual animals: one column per animal R#11,12,18,23,29,30,17,24
# Description: The aim of the study was to evaluate, using microdialysis, the effects of an intraperitoneal (I.P.) administration in rats of three different doses of SON-117 on dopamine and its metabolites, serotonin and its metabolite (5-HIAA), and norepinephrine levels in prefrontal cortex.
# Thirty-two adult male Wistar rats were used for the whole study (4 groups of eight animals planned for the study, Table 1).
# Surgery was performed on rats weighing about 300 g at the beginning of the experiments. Rats were anaesthetized with Ketamine (50 mg/kg) & Xylazine (15 mg/kg) by intramuscular administration. The animals were placed in a stereotaxic apparatus in the flat-skull position at a constant setting of −3.3 mm between ear bars and the incisor bar. The animals were treated with a local anesthesic (xylocaine 1%, Astra Zeneca) and an analgesic (Temgesic, from Schering Plough, 0.05 mg/kg, s.c.). A rostrocaudal midline incision was made with a lancet to expose the dorsal skull surface. The “stereotaxic zero” was defined by the Bregma in accordance with Paxinos and Watson's atlas (1986). A hole was drilled in the skull with a drill and the meninges were pierced with a sterile needle to implant a CMA12 guide cannula which later received the dialysis probe.
# Coordinates used for implanting guide cannula in prefrontal cortex from Bregma were anteroposterior 3.7 mm, mediolateral 0.8 mm, and dorsoventral −2 mm (top of the probe was at −5 mm). The guide cannula was fixed to the skull with two stainless steel screws (1.88 mm outside diameter) anchored. An application of dental cement was added. A plastic collar allowed each animal to be tethered to a Swivel assembly of the CMA 120 awake animal system. Following surgery, rats were kept in individual cages and allowed to recover for a minimum of 3-5 days before the experimentation. The rats were handled and put in plastic bowl for 10 min at least every day to habituate the animals to their new environment for the dialysis. An I.P. administration with saline was also performed every day.
# Dialysis probes (CMA12/3 mm, membrane, 20 kD cut-off, Carnegie Medicine, Stockholm, Sweden), were carefully washed before inserting into the guide cannula. The wash was performed with the artificial cerebrospinal fluid (aCSF) medium (NaCl 147 mM, KCl 2.7 mM, CaCl2 1.2 mM, MgCl2 0.85 mM) at room temperature. The dialysis system was then equilibrated at 20° C. at a perfusion rate of 1 μl/min with a Carnegie pump (CMA100). All catheters (FEP tubing, internal volume of 1.2 μl/10 cm, and tubing adaptors) used for microdialysis were treated in the same conditions.
# The probes duly prepared were inserted into the guide cannula and the CMA120 Swivel assembly secured to the animal using a plastic collar. Flow through the dialysis probe with aCSF was maintained at a rate of 1 μl/min during the whole experimentation. The first four fractions (corresponding to 2 hours) were discarded to avoid the effects of parenchymal disturbance and to ensure that an approximate steady-state level was reached. Fractions were then collected over a period of 8.5 h during which time the animals remained quiet. The dialysates were automatically collected with an autosampler (microfraction collector CMA 140, Carnegie Medicin) and stored at −80° C. until analysis. […] Perfusion was then maintained for 7 hours with aCSF. The dialysates (30 μl) were collected into 300 μl vials, transferred into dry ice and then kept frozen (−80° C.) until analysis. Frozen samples were shipped to a partner for analysis. At the end of the microdialysis study, a PBS with colored ink was perfused through the probe in order to visualize the dialyzed area.
# Catecholamine assay: Concentrations of dopamine, DOPAC, HVA, 5-HIAA, 5-HT, and norepinephrin were determined for each sample by HPLC coupled with electrochemical detection.
compound,measurement,setting,value
"Cc1nnc(-c2cc3c(OC[C@@H](O)CN4CCC(c5ccc(Cl)c(Cl)c5)CC4)cccc3o2)o1 [SON-117, (S)-1-(4-(3,4-dichlorophenyl)piperidino)-3-(2-(5-methyl-1,3,4-oxadiazol-2-yl)benzo(b)furan-4-yloxy)-2-propanol hydrochloride]","HVA release, MEAN",T3 h 30-T4 h,90.45 % of respective basal
same,"HVA release, individual animals","T3 h 30-T4 h, hydrochloride",64.18 % of respective basal and 83.25 % of respective basal and 133.74 % of respective basal and 64.93 % of respective basal and 107.52 % of respective basal and 70.49 % of respective basal and 109.07 % of respective basal
same,"HVA release, MEAN",T3 h-T3 h 30,85.22 % of respective basal
same,"HVA release, individual animals","T3 h-T3 h 30, hydrochloride",63.81 % of respective basal and 90.24 % of respective basal and 111.62 % of respective basal and 62.71 % of respective basal and 98.55 % of respective basal and 74.57 % of respective basal and 95.05 % of respective basal
same,"HVA release, MEAN",T4 h 30-T5 h,85.23 % of respective basal
same,"HVA release, individual animals","T4 h 30-T5 h, hydrochloride",91.96 % of respective basal and 80.15 % of respective basal and 68.04 % of respective basal and 115.19 % of respective basal and 50.60 % of respective basal and 77.44 % of respective basal and 98.06 % of respective basal and 100.39 % of respective basal
same,"HVA release, MEAN",T4 h-T4 h 30,85.20 % of respective basal
same,"HVA release, individual animals","T4 h-T4 h 30, hydrochloride",92.27 % of respective basal and 67.44 % of respective basal and 79.90 % of respective basal and 118.84 % of respective basal and 74.80 % of respective basal and 79.15 % of respective basal and 73.39 % of respective basal and 95.82 % of respective basal
same,"HVA release, MEAN",T5 h 30-T6 h,83.81 % of respective basal
same,"HVA release, individual animals","T5 h 30-T6 h, hydrochloride",88.34 % of respective basal and 70.37 % of respective basal and 54.74 % of respective basal and 111.90 % of respective basal and 57.33 % of respective basal and 69.05 % of respective basal and 120.47 % of respective basal and 98.25 % of respective basal
same,"HVA release, MEAN",T5 h-T5 h 30,72.11 % of respective basal
same,"HVA release, individual animals","T5 h-T5 h 30, hydrochloride",33.79 % of respective basal and 37.83 % of respective basal and 125.18 % of respective basal and 104.80 % of respective basal and 54.92 % of respective basal and 81.46 % of respective basal and 45.38 % of respective basal and 93.54 % of respective basal
same,"HVA release, MEAN",T6 h 30-T7 h,82.40 % of respective basal
same,"HVA release, individual animals","T6 h 30-T7 h, hydrochloride",80.98 % of respective basal and 79.92 % of respective basal and 57.44 % of respective basal and 123.91 % of respective basal and 59.14 % of respective basal and 77.28 % of respective basal
same,"HVA release, MEAN",T6 h-T6 h 30,78.87 % of respective basal
same,"HVA release, individual animals","T6 h-T6 h 30, hydrochloride",80.55 % of respective basal and 69.54 % of respective basal and 51.01 % of respective basal and 121.49 % of respective basal and 63.35 % of respective basal and 86.74 % of respective basal and 63.13 % of respective basal and 95.14 % of respective basal
same,"HVA release, MEAN",T-30 min-T0 (before administration),101.32 % of respective basal
same,"HVA release, MEAN",T-1 h 30-T-1 h (before administration),95.27 % of respective basal
same,"HVA release, MEAN",T-1 h-T-30 min (before administration),103.42 % of respective basal
same,HVA dialysate levels vs mean pre-administration value,SON-117 0.1 mg/kg I.P.,no statistically significant differences
same,HVA dialysate levels vs mean pre-administration value,SON-117 0.3 mg/kg IP,no statistically significant differences
same,"HVA release (% of basal levels) measured in dialysates, MEAN","SON-117 3 mg/kg IP, T0-T30 min",94.34 % of basal levels
same,"HVA release (% of basal levels) measured in dialysates, MEAN","SON-117 3 mg/kg IP, T30-T1 h",98.30 % of basal levels
same,HVA release (% of basal levels) measured in dialysates,"SON-117 3 mg/kg IP, T30-T1 h, individual animals, hydrochloride, 3 mg/kg",87.52 % of basal levels and 80.65 % of basal levels and 76.40 % of basal levels and 105.83 % of basal levels and 105.61 % of basal levels and 95.14 % of basal levels and 127.36 % of basal levels and 107.87 % of basal levels
same,"HVA release (% of basal levels) measured in dialysates, MEAN","SON-117 3 mg/kg IP, T1 h 30-T2 h",106.02 % of basal levels
